According to publication PMC2806825, “The Expression Level of CB1 and CB2 Receptors Determines Their Efficacy at Inducing Apoptosis in Astrocytomas” (PLoS ONE, 2010):

Assays:
CB1 receptors = biological target: T1, CB1 receptors (Mus musculus, UniProt P47746); assay: Radioligand saturation binding with [3H]CP-55,940 on membranes of CB1-expressing DBT subclones; details: mean of 3–5 determinations
T1 construct: expressed in transfected cells
Procedure: (§1) Cells (10^6) were expanded in 10 cm dishes using 10 ml culture media. Once they reached ∼70% confluence, they were rinsed with PBS and kept for an additional 24 hrs in serum-deprived media, which is composed of DMEM+GlutaMAX™-I supplemented with fatty acid free bovine serum albumin (0.1%, BSA, Sigma-Aldrich, St. Louis, MO) and insulin-transferin-sodium selenite liquid media (1×, ITS, Sigma-Aldrich). For qPCR, media was removed and cells washed once with 10 ml PBS, then cells were scraped and total RNA isolated using RNeasy extraction kit (QIAGEN) according to the manufacturer's instructions. The following primer and TaqMan probe sequences were generated using Primer Express (Perkin-Elmer Applied Biosystems, Foster City, CA): mCB1 forward, 5′-[…]-3′, reverse, 5′-[…]-3′, probe, 5′-([…])-3′; mCB2 forward, 5′-[…]-3′, reverse, 5′-[…]-3′, probe, 5′-([…])-3′. Total RNA from each sample (2.5 ng) was reverse transcribed in the same 10 µl quantitative PCR reaction mix using the Brilliant Single-Step Quantitative RT-PCR Core Reagent Kit (Stratagene, La Jolla, CA). Combined reactions were carried out on a Stratagene Mx3000P Real-Time Detection System using the following protocol: 30 min single-strand synthesis reaction at 45°C; 40-cycle, two-step PCR amplification (15 sec at 95°C followed by 1 min at 56°C). Duplicate reactions with and without reverse transcriptase were run for each sample. For radioligand binding, media was removed and cells washed once with 10 ml PBS. Cells were scraped in 1 ml buffer (50 mM Tris-HCl, 3 mM MgCl2, 1 mM EDTA, pH 7.4) and pulse homogenized 10 sec using PRO200 tissue homogenizer (PRO Scientific, Oxford, CT). Crude membrane preparations were generated by centrifugation of cell homogenates for 20 min at >10,000×g. Cell pellets were resuspended in buffer containing BSA (0.1%, fatty acid free) and 50 µg protein added to siliconized glass tubes for assay. […] Radioactivity on filters was measured using scintillation counter.

CB2 receptors [1] = biological target: T2, CB2 receptors (Mus musculus, UniProt P47936); assay: Radioligand saturation binding with [3H]CP-55,940 on membranes of CB2-expressing DBT subclones; details: mean of 3–5 determinations
T2 construct: expressed in transfected cells
T2 sequence (P47936 whole entry): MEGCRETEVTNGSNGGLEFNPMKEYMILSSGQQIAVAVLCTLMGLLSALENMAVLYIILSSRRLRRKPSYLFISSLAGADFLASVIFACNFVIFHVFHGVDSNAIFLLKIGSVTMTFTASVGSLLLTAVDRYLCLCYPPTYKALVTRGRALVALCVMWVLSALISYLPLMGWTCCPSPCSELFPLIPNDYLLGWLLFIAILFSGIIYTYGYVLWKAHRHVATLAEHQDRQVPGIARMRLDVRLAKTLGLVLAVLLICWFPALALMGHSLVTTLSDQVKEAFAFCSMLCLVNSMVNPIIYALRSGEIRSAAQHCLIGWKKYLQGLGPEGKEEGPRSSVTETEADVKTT
Procedure: as §1

wild-type DBT cells [2] = assay: Radioligand binding with [3H]CP-55,940 on wild-type DBT cells; parameters: species or system mouse
Procedure: as §1, with “56°C).” for “56°C). Duplicate reactions with and without reverse transcriptase were run for each sample. For radioligand binding, media was removed and cells washed once with 10 ml PBS. Cells were scraped in 1 ml buffer (50 mM Tris-HCl, 3 mM MgCl2, 1 mM EDTA, pH 7.4) and pulse homogenized 10 sec using PRO200 tissue homogenizer (PRO Scientific, Oxford, CT). Crude membrane preparations were generated by centrifugation of cell homogenates for 20 min at >10,000×g. Cell pellets were resuspended in buffer containing BSA (0.1%, fatty acid free) and 50 µg protein added to siliconized glass tubes for assay.”

DBT cells = assay: Cell viability by WST-1 conversion, wild type DBT cells and DBT subclones; assay type: cell-based, mouse
Procedure: (§2) Cells were expanded in 24-well plates (10^5 cells per well) in culture media (0.5 ml per well). Once they reached ∼70% confluence, they were rinsed with PBS and kept for an additional 24 hrs in serum-deprived media, at which time drugs or vehicle (DMSO, 0.1%) prepared in 50 µl serum-deprived media were directly added to each well. After 1, 3, or 5 days, cell viability was assessed using the Cell Proliferation Reagent WST-1 (Roche, Indianapolis, IN). Briefly, WST-1 reagent (50 µl) was added to each well for 4 hrs at 37°C with 5% CO2, and then WST-1 products were read at 450 nm using Packard SpectraCount™. Apoptosis was assessed using PI and annexin V (Pacific Blue™, Invitrogen). Briefly, cells were detached using trypsin, rinsed with 25°C PBS and resuspended to a density of 10^6 cells per ml of annexin-binding buffer (10 mM HEPES, 140 mM NaCl, 2.5 mM CaCl2, pH 7.4). PI (100 ng) and annexin V were added to 100 µl of cell suspension and incubated at 25°C for 30 min. Additional annexin-binding buffer was added (400 µl) and samples were sorted (10,000 events) on a LSR II flow cytometer (BD Biosciences, San Jose, CA) and the data analyzed using FlowJo (Tree Star, Inc., Ashland, OR).

CB1-low DBT cells [3] = assay: Cell viability by WST-1 conversion, CB1-low DBT cells; assay type: cell-based, mouse
Procedure: as §2

wild type DBT cells = assay: Cell viability by WST-1 conversion, wild type DBT cells; assay type: cell-based, mouse
Procedure: as §2

CB2 receptors [4] = biological target: T2, CB2 receptors; assay: ERK1/2 phosphorylation by Western blot in CB2-expressing DBT subclones; assay type: cell-based
Procedure: (§3) Cells were expanded in Costar 24-well plates (10^5 cells per well) in culture media (0.5 ml per well). Once they reached ∼70% confluence, they were rinsed with PBS and kept for an additional 24 hrs in serum-deprived media, at which time point drugs or vehicle (DMSO, 0.1%) prepared in 50 µl serum-deprived media were directly added to each well for the corresponding number of minutes. We chose to directly administer the drugs to cell culture media instead of replacing the media to avoid stress-induced increases in basal kinase phosphorylation (Figure S1). To quantify Erk phosphorylation, reactions were stopped by removing the media and adding NuPAGE® LDS sample buffer (300 µl, Invitrogen, Carlsbad, CA) supplemented with 2-mercaptoethanol (1%). An aliquot of each sample (20 µl) was loaded onto NuPAGE® 4–12% Bis-Tris pre-cast gels (Inivtrogen) and electrophoresed according to the manufacturer's instructions. Gels were electrophoretically transferred to P-nitrocellulose membrane (Millipore, Billerica, MA) and blocked in LiCOR blocking buffer (LiCOR, Lincoln, NE) for 1 hr at 25°C. Membranes were then incubated in blocking buffer containing rabbit anti-phospho-p44/42 antibody (1∶1000, Cell Signaling Technology, Inc., Danvers, MA) for 1 hr at 25°C. Membranes were washed 3 times with Tris (50 mM) buffered saline containing 0.1% Tween-20 (TBS-T). Membranes were then incubated in blocking buffer containing donkey anti-rabbit antibody conjugated to IRDye 800 (1∶7500, Rockland Immunochemicals, Inc., Gilbertsville, PA) for 1 hr at 25°C. Membranes were washed 3 times with TBS-T. The fluorescence intensity of each band was quantified using the LiCOR Odyssey. To quantify AKT, JNK, p38 and GSKβ phosphorylation, reactions were stopped by addition of NP40 cell lysis buffer (100 µl, Invitrogen). Substrate phosphorylation was quantified using a Biosource Multiplex Bead Immunoassay kit (Invitrogen) according to the manufacturer's instructions and using a Luminex 100™ instrument (Luminex, Austin, TX).

CB2 receptors [5] = biological target: T2, CB2 receptors; assay: AKT phosphorylation by Luminex multiplex immunoassay in CB2-expressing DBT subclones; assay type: cell-based; details: for AKT phosphorylation: 1 µM
Procedure: as §3

[6] = test system: ERK1/2 phosphorylation in wild-type DBT cells; assay: ERK1/2 phosphorylation in wild-type DBT cells; assay type: cell-based, mouse; details: 1 µM
Procedure: as §3, with “Gels were electrophoretically transferred to P-nitrocellulose membrane (Millipore, Billerica, MA) and blocked in LiCOR blocking buffer (LiCOR, Lincoln, NE) for 1 hr at 25°C. Membranes were then incubated in blocking buffer containing rabbit anti-phospho-p44/42 antibody (1∶1000, Cell Signaling Technology, Inc., Danvers, MA) for 1 hr at 25°C. Membranes were washed 3 times with Tris (50 mM) buffered saline containing 0.1% Tween-20 (TBS-T). Membranes were then incubated in blocking buffer containing donkey anti-rabbit antibody conjugated to IRDye 800 (1∶7500, Rockland Immunochemicals, Inc., Gilbertsville, PA) for 1 hr at 25°C.” left out

[7] = test system: AKT phosphorylation in wild type DBT cells; assay: AKT phosphorylation in wild type DBT cells; assay type: cell-based, mouse; details: 1 µM
Procedure: as §3, with “Gels were electrophoretically transferred to P-nitrocellulose membrane (Millipore, Billerica, MA) and blocked in LiCOR blocking buffer (LiCOR, Lincoln, NE) for 1 hr at 25°C. Membranes were then incubated in blocking buffer containing rabbit anti-phospho-p44/42 antibody (1∶1000, Cell Signaling Technology, Inc., Danvers, MA) for 1 hr at 25°C. Membranes were washed 3 times with Tris (50 mM) buffered saline containing 0.1% Tween-20 (TBS-T). Membranes were then incubated in blocking buffer containing donkey anti-rabbit antibody conjugated to IRDye 800 (1∶7500, Rockland Immunochemicals, Inc., Gilbertsville, PA) for 1 hr at 25°C.” left out

CB2 receptors [8] = biological target: T2, CB2 receptors; assay: JNK and p38 phosphorylation by Luminex multiplex immunoassay in CB2-high DBT clone; assay type: cell-based; details: 1 µM, lasted throughout 30 min incubation
Procedure: as §3, with “Gels were electrophoretically transferred to P-nitrocellulose membrane (Millipore, Billerica, MA) and blocked in LiCOR blocking buffer (LiCOR, Lincoln, NE) for 1 hr at 25°C. Membranes were then incubated in blocking buffer containing rabbit anti-phospho-p44/42 antibody (1∶1000, Cell Signaling Technology, Inc., Danvers, MA) for 1 hr at 25°C. Membranes were washed 3 times with Tris (50 mM) buffered saline containing 0.1% Tween-20 (TBS-T). Membranes were then incubated in blocking buffer containing donkey anti-rabbit antibody conjugated to IRDye 800 (1∶7500, Rockland Immunochemicals, Inc., Gilbertsville, PA) for 1 hr at 25°C.” left out

GSK-3β phosphorylation = GSK-3β phosphorylation by Luminex multiplex immunoassay in DBT subclones; assay type: cell-based, mouse; details: any of the subclones, throughout 30 min incubation; data not shown
Procedure: as §3, with “Gels were electrophoretically transferred to P-nitrocellulose membrane (Millipore, Billerica, MA) and blocked in LiCOR blocking buffer (LiCOR, Lincoln, NE) for 1 hr at 25°C. Membranes were then incubated in blocking buffer containing rabbit anti-phospho-p44/42 antibody (1∶1000, Cell Signaling Technology, Inc., Danvers, MA) for 1 hr at 25°C. Membranes were washed 3 times with Tris (50 mM) buffered saline containing 0.1% Tween-20 (TBS-T). Membranes were then incubated in blocking buffer containing donkey anti-rabbit antibody conjugated to IRDye 800 (1∶7500, Rockland Immunochemicals, Inc., Gilbertsville, PA) for 1 hr at 25°C.” left out

wild-type DBT cells [9] = assay: Apoptosis by propidium iodide and annexin V FACS, wild-type DBT cells; assay type: cell-based, mouse; details: 10 µM
Procedure: as §2

CB1-low DBT cells [10] = assay: Apoptosis by propidium iodide and annexin V FACS, CB1-low DBT cells; assay type: cell-based, mouse; details: 1 µM
Procedure: as §2

[11] = antagonist 3 µM added 10 min before CP, CB2 subclones

T1 sequence (P47746 whole entry): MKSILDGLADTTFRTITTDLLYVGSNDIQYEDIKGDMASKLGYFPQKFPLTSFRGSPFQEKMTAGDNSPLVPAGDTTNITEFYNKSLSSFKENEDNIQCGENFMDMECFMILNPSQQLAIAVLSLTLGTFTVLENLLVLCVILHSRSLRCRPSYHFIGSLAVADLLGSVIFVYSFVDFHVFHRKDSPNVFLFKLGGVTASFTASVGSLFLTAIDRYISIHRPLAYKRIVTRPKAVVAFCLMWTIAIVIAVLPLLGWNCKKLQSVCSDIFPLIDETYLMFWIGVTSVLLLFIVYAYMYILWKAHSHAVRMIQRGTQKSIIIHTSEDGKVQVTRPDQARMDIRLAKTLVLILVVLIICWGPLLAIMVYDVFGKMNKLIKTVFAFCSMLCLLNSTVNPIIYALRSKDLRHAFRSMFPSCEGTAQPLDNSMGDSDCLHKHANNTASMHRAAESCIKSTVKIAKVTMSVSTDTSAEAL

CCCCCCC(C)(C)c1ccc([C@@H]2C[C@H](O)CC[C@H]2CCCO)c(O)c1 [[^3H]CP-55,940]
Kd (CB1 receptors; CB1-high subclone E5): 0.7 nM | Kd (CB1 receptors; CB1-low subclone E3): 0.8 nM | Kd (CB1 receptors; CB1-mid subclone E7): 0.8 nM | Kd (CB2 receptors [1]; CB2-high subclone 1D6): 0.6 nM | Kd (CB2 receptors [1]; CB2-low subclone 2G5): 0.8 nM | Kd (CB2 receptors [1]; CB2-mid subclone 2H1): 0.4 nM | Radioligand binding (wild-type DBT cells [2]): no binding

CCN(CC)CCCCN1c2ccccc2Oc2ccc(Cl)cc21.Cl [Inhibitor X]
Effect on killing by 1 µM CP-55,940 (WST-1) (DBT cells; 5 µM added 10 min before CP, DBT subclones normally resistant, 5 days): uncovered the ability of 1 µM CP-55,940 to kill | Effect by itself on cell viability (WST-1) (DBT cells; 5 µM, DBT subclones, 5 days): no effect

COc1cccc(-c2cc(=O)c3ccccc3o2)c1N [PD98059]
Effect on 1 µM CP-55,940-induced killing (CB1-low DBT cells [3]; inhibitor 10 µM pretreatment, CB1-low DBT cells): partially prevented | Effect on 10 µM CP-55,940-induced killing (wild type DBT cells; inhibitor 10 µM pretreatment, wild-type DBT cells): partially prevented

5- (4-chloro-3- methyl- phenyl)-1- [(4- methylphenyl)methyl]- N-(1,3,3- trimethylnorbornan- 2- yl)- pyrazole- 3- carboxamide [SR144528]
Effect on CP-55,940 (1 µM)-induced ERK1/2 phosphorylation (CB2 receptors [4]; [11]): significantly attenuated | Effect on CP-55,940 (1 µM)-induced AKT phosphorylation (CB2 receptors [5]; [11]): antagonized

(−)-cis-3-[2-hydroxy-4-(1,1-dimethylheptyl)phenyl]-trans-4-(3-hydroxypropyl) cyclohexanol [CP-55,940]
ERK1/2 phosphorylation above vehicle-treated controls (CB2 receptors [4]; 1 µM, 3 min, CB2-low, CB2-mid, CB2-high subclones): significant increase | Time of peak of ERK1/2 phosphorylation (CB2 receptors [4]; 1 µM, CB2-expressing subclones): 3 min | Time of return of ERK1/2 phosphorylation to basal (CB2 receptors [4]; 1 µM, CB2-expressing subclones): 10 to 20 min | ERK1/2 phosphorylation [6]: did not affect | AKT phosphorylation (CB2 receptors [5]; CB2-high clone, during the entire 30 min incubation): above 250 % of basal | AKT phosphorylation (CB2 receptors [5]; CB2-high subclone): most pronounced increase | AKT phosphorylation (CB2 receptors [5]; CB2-low and CB2-mid subclones): small, but significant increase | AKT phosphorylation [7]: did not increase | Phosphorylation state of JNK and p38 (CB2 receptors [8]): 150–170 % of basal | Phosphorylation state of GSK-3β (GSK-3β phosphorylation): did not significantly affect | Cell death (WST-1) (CB1-low DBT cells [3]; 1 µM, CB1-low DBT subclone, five days after treatment): ~50% | EC50 (CB1-low DBT cells [3]; CB1-low DBT cells, Figure 3c, read-out: EC50 of cell killing (WST-1)): 560 nM | EC50 (wild type DBT cells; wild type DBT cells, Figure 3c, read-out: EC50 of cell death (WST-1)): 5000 nM | Cell death (WST-1) (DBT cells; 10 µM, wild type DBT cells and all six subclones, five days after treatment): 35–90% | Cell death by apoptosis (wild-type DBT cells [9]; 3 days after treatment): 27% | Cell death by apoptosis (wild-type DBT cells [9]; after five days): 78% | Cell death by apoptosis (CB1-low DBT cells [10]; 3 days after treatment): 15% | Cell death by apoptosis (CB1-low DBT cells [10]; after five days): 48%

Cc1c(C(=O)NN2CCCCC2)nn(-c2ccc(Cl)cc2Cl)c1-c1ccc(Cl)cc1 [SR141716A, 5-(4-chlorophenyl)-1-(2,4-dichlorophenyl)-4-methyl-N-(1-piperidyl)-1H-pyrazole-3-carboxamide]
Effect on 1 µM CP-55,940-induced killing (CB1-low DBT cells [3]; antagonist 5 µM pretreatment, CB1-low DBT cells): blocked | Effect on 10 µM CP-55,940-induced cell death (wild type DBT cells; antagonist 5 µM pretreatment, wild type DBT cells): did not affect
